Laboratory results: ChEMBL document CHEMBL6120938, “Covalent small-molecule inhibitors of SARS-CoV-2 Mpro: Insights into their design, classification, biological activity, and binding interactions” (Eur J Med Chem, 2024)
Where a SMILES comes first, the peptide text is derived from it. The star is where a group is joined. Octanoyl = CCCCCCCC(=O)*; Boc = CC(C)(C)OC(=O)*

System: SARS-CoV-2
Assay: Antiviral activity against SARS-CoV-2 Wuhan 5-2N variant infected in African green monkey Vero E6 cells measured for 3 days by WST-8 assay
Format: functional, organism-based
Details: Severe acute respiratory syndrome coronavirus 2, Wuhan 5-2N, Vero C1008, 72 h

Compared with `CC(=O)NCC(=O)N[C@@H](Cc1ccccc1)C(=O)N[C@H](C=O)Cc1c[nH]cn1` (Ac-Gly-Phe-His-aldehyde), `CC(C)(C)OC(=O)NCC(=O)N[C@@H](Cc1ccccc1)C(=O)N[C@H](C=O)Cc1c[nH]cn1` (Boc-Gly-Phe-His-aldehyde) is 13-fold lower in EC50: 66.1 µM for the first, 5 µM for the second.

`CCCCCCCC(=O)NCC(=O)N[C@@H](Cc1ccccc1)C(=O)N[C@H](C=O)Cc1c[nH]cn1` (Octanoyl-Gly-Phe-His-aldehyde) showed an EC50 of 5 µM.
